ChEMBL document CHEMBL4840373, “Aureonitol Analogues and Orsellinic Acid Esters Isolated from Chaetomium elatum and Their Antineuroinflammatory Activity” (J Nat Prod, 2021)
Activity calls are given as the source filed them. The calls are words filed in the database; no cut-off is given here.

Experiments:
[1] = test system: BV-2; experiment: Cytotoxicity against mouse BV-2 cells assessed as reduction in cell viability at 120 uM after 24 hrs by MTT assay; assay type: cell-based; details: bv-2, 24 h
[2] = test system: BV-2; experiment: Antiinflammatory activity in mouse BV-2 cells assessed as inhibition of LPS-induced NO production at 15 uM pretreated with compound for 1 hr followed by LPS stimulation for 24 hrs by Griess reagent based assay; assay type: functional, cell-based; details: time 25.0 hrs
[3] = test system: BV-2; experiment: Antiinflammatory activity in mouse BV-2 cells assessed as inhibition of LPS-induced NO production pretreated with compound for 1 hr followed by LPS stimulation for 24 hrs by Griess reagent based assay; assay type: functional, cell-based
[4] = target: MAP kinase p38 (Mus musculus) (UniProt P47811+O08911+Q9WUI1+Q9Z1B7); experiment: Inhibition of p38 phosphorylation in LPS-stimulated mouse BV-2 cells at 15 to 60 uM pretreated with compound for 1 hr followed by LPS stimulation for 24 hrs by Western blot analysis; assay type: cell-based; details: dose 15-60 µM, time 25.0 hrs
[5] = test system: BV-2; experiment: Antiinflammatory activity against LPS-induced mouse BV-2 cells assessed as decrease in COX2 protein expression at 15 to 60 uM pretreated with compound for 1 hr followed by LPS stimulation after 24 hrs by Western blot analysis; assay type: functional, cell-based; details: dose 15-60 µM, time 25.0 hrs
[6] = test system: BV-2; experiment: Antiinflammatory activity against mouse BV-2 cells assessed as inhibition of LPS-induced ROS production at 15 to 60 uM pretreated with compound for 1 hr followed by LPS stimulation for 24 hrs by DCFH-DA staining based fluorescence microscopy; assay type: functional, cell-based; details: dose 15-60 µM, time 25.0 hrs
[7] = test system: BV-2; experiment: Antiinflammatory activity against LPS-induced mouse BV-2 cells assessed as inhibition of TLR-4 protein expression at 15 to 60 uM pretreated with compound for 1 hr followed by LPS stimulation after 24 hrs by Western blot analysis; assay type: functional, cell-based; details: dose 15-60 µM, time 25.0 hrs
[8] = test system: BV-2; experiment: Antiinflammatory activity against mouse BV-2 cells assessed as inhibition of LPS-induced IL-6 production at 15 to 60 uM pretreated with compound for 1 hr followed by LPS stimulation for 24 hrs by ELISA; assay type: functional, cell-based; details: dose 15-60 µM, time 25.0 hrs
[9] = target: T1, Inhibitor of nuclear factor kappa-B kinase subunit beta (Mus musculus) (UniProt O88351); experiment: Inhibition of IKappaB phosphorylation in LPS-stimulated mouse BV-2 cells at 15 to 60 uM pretreated with compound for 1 hr followed by LPS stimulation for 24 hrs by Western blot analysis; assay type: cell-based; details: dose 15-60 µM, time 25.0 hrs
T1 sequence (whole entry): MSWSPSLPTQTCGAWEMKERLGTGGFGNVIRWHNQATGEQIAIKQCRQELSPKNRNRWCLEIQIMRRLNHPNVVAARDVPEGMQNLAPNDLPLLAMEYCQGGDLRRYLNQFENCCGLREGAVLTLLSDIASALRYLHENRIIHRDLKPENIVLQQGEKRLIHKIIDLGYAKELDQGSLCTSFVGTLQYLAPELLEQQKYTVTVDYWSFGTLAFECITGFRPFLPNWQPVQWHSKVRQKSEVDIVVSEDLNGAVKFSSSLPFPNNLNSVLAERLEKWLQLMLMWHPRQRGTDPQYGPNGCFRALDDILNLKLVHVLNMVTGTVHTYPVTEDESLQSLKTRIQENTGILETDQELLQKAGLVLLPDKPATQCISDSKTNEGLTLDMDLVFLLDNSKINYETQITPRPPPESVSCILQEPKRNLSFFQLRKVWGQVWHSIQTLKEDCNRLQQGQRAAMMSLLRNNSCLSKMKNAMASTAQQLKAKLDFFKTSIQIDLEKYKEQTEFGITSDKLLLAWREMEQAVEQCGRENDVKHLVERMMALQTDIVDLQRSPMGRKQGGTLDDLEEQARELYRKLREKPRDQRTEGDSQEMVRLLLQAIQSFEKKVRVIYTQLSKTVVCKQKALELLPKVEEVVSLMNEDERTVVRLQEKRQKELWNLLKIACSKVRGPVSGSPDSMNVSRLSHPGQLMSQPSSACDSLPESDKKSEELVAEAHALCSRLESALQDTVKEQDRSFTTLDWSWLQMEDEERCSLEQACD

[10] = test system: BV-2; experiment: Antiinflammatory activity against LPS-induced mouse BV-2 cells assessed as decrease in iNOS protein expression at 15 to 60 uM pretreated with compound for 1 hr followed by LPS stimulation after 24 hrs by Western blot analysis; assay type: functional, cell-based; details: dose 15-60 µM, time 25.0 hrs
[11] = test system: BV-2; experiment: Antiinflammatory activity against mouse BV-2 cells assessed as inhibition of LPS-induced IL-1beta production at 15 to 60 uM pretreated with compound for 1 hr followed by LPS stimulation for 24 hrs by ELISA; assay type: functional, cell-based; details: dose 15-60 µM, time 25.0 hrs
[12] = test system: BV-2; experiment: Antiinflammatory activity against LPS-induced mouse BV-2 cells assessed as inhibition of NFkB protein expression at 15 to 60 uM pretreated with compound for 1 hr followed by LPS stimulation after 24 hrs by Western blot analysis; assay type: functional, cell-based; details: dose 15-60 µM, time 25.0 hrs
[13] = test system: BV-2; experiment: Antiinflammatory activity against mouse BV-2 cells assessed as inhibition of LPS-induced TNFalpha production at 15 to 60 uM pretreated with compound for 1 hr followed by LPS stimulation for 24 hrs by ELISA; assay type: functional, cell-based; details: dose 15-60 µM, time 25.0 hrs

Row | SMILES | Activity [1] | inhibition [2] | other results
1 | C=C/C=C/[C@@H]1OC[C@@H](/C=C/C=C/C)[C@@H]1O | Non-Toxic | – | –
2 | Cc1cc(O)cc(O)c1C(=O)OCC(=O)[C@@H](O)[C@H](C)O [GLOBOSUMONE C] | Non-Toxic | – | –
3 | C=C/C=C/[C@@H]1OC[C@H](/C=C/[C@@H](O)[C@@H](C)O)[C@H]1O | Non-Toxic | – | –
4 | C=C/C=C/[C@H]1OC[C@@H]([C@@H](O)/C=C/[C@@H](C)O)[C@@H]1O | Non-Toxic | Active | –
5 | C/C=C/C=C/[C@H]1CO[C@@H](/C=C/[C@@H](O)CO)[C@@H]1O | Non-Toxic | Active | –
6 | C/C=C/C=C/[C@H]1CO[C@@H](/C=C/[C@H](O)CO)[C@@H]1O | Non-Toxic | – | IC50 [3]: 16.6 µM; inhibition [4]: Active; Activity [5]: Active; Activity [6]: Active; inhibition [7]: Active; Activity [8]: Active; inhibition [9]: Active; Activity [10]: Active; Activity [11]: Active; inhibition [12]: Active; Activity [13]: Active
7 | Cc1cc(O)cc(O)c1C(=O)OC[C@@]1(C[C@@H](C)O)C[C@@H](O)C(=O)O1 | Non-Toxic | – | –
8 | C=C/C=C/[C@@H]1OC[C@H](/C=C/C[C@H](C)O)[C@H]1O | Non-Toxic | Active | –
9 | C=C/C=C/[C@@H]1OC[C@H](/C=C/[C@@H](O)[C@H](C)O)[C@H]1O | Non-Toxic | – | –
10 | C=C/C=C/[C@@H]1OC[C@H](/C=C/C=C/C)[C@H]1O | Non-Toxic | – | –
